Results as given in patent publication US5719143A, “Polysubstituted 3-acylamino-5-phenyl-1, 4-benzodiazepin-2-one derivatives, process for their preparation and the pharmaceutical compositions containing them” (Sanofi, priority 1994, dated 1998).

Experiments:
biliary emptying = experiment: in vivo biliary emptying model in fasted mice; conditions: Mus musculus, po, 1 h, administered orally one hour before the sacrifice, bile vesicle weight
Protocol: The compounds are administered orally one hour before the sacrifice. The bile vesicle is removed and then weighed and the results, expressed in mg/kg of body weight, reveal for the compound of Example 10, for example, an ED50 of 0.3 mg/kg.

CCKA receptors = experiment: in vitro affinity measurement, CCKA receptors; assay type: binding
Protocol: These compounds have formed the subject of in vitro affinity measurement studies concerning the CCKA receptors.
(§1) This affinity is between 0.5 and 100 nM with a selectivity for the CCKA receptors over the CCKB receptors which may reach a factor of 10,000 for the compound of Example 1, for example.

CCKB receptor = experiment: in vitro affinity measurement, CCKB receptor; assay type: binding
Protocol: as §1

SMILES | affinity for the CCKB receptor compared with that for the CCKA receptor (CCKB receptor) | other results
COc1cc(C)cc(OC)c1C1=NC(NC(=O)c2cc3ccccc3[nH]2)C(=O)N(C)c2ccccc21 (single isomer, unassigned; (+)) [Example 10, (+)-N-[2,3-dihydro-5-(2,6-dimethoxy-4-methylphenyl)-1-methyl-2-oxo-1H-1,4-benzodiazepin-3-yl]-1H-indole-2-carboxamide] | – | ED50 (biliary emptying): 0.3 mg/kg
COc1cc(C)cc(OC)c1C1=NC(NC(=O)c2cc3ccccc3[nH]2)C(=O)N(C)c2ccccc21 (stereo not shown) [Example 1, N-[2,3-dihydro-5-(2,6-dimethoxy-4-methylphenyl)-1-methyl-2-oxo-1H-1,4-benzodiazepin-3-yl]-1H-2-indolecarboxamide] | – | selectivity for the CCKA receptors over the CCKB receptors (factor) (CCKA receptors): 10,000
COc1cc(C)cc(OC)c1C1=NC(NC(=O)Nc2cccc(C)c2)C(=O)N(C)c2ccccc21 (stereo not shown) [Example 6, 1,3-dihydro-5-(2,6-dimethoxy-4-methylphenyl)-1-methyl-3-(3-methylphenylureido)-1,4-benzodiazepin-2-one] | identical to or greater than that obtained for the CCKA receptor | –
COc1cc(OC)c(C2=NC(NC(=O)Nc3cccc(C)c3)C(=O)N(C)c3ccccc32)c(OC)c1 (stereo not shown) [Example 7, 1,3-dihydro-1-methyl-3-(3-methylphenylureido)-5-(2,4,6-trimethoxyphenyl)-1,4-benzodiazepin-2-one] | identical to or greater than that obtained for the CCKA receptor | –
